Paper PMC6165432 (International Journal of Molecular Sciences, 2018)
Like-named read-outs stand apart in the source and are kept apart here. Values belong to the compound of their own block, whether it stands above or below them.

Legend:
human AhR (hAhR) = target: T1, human AhR (hAhR) (Homo sapiens, UniProt P35869); experiment: AhR-responsive luciferase reporter gene assay in stably transfected human HG2L6.1c1 hepatoma cells
T1 sequence (P35869 11-848): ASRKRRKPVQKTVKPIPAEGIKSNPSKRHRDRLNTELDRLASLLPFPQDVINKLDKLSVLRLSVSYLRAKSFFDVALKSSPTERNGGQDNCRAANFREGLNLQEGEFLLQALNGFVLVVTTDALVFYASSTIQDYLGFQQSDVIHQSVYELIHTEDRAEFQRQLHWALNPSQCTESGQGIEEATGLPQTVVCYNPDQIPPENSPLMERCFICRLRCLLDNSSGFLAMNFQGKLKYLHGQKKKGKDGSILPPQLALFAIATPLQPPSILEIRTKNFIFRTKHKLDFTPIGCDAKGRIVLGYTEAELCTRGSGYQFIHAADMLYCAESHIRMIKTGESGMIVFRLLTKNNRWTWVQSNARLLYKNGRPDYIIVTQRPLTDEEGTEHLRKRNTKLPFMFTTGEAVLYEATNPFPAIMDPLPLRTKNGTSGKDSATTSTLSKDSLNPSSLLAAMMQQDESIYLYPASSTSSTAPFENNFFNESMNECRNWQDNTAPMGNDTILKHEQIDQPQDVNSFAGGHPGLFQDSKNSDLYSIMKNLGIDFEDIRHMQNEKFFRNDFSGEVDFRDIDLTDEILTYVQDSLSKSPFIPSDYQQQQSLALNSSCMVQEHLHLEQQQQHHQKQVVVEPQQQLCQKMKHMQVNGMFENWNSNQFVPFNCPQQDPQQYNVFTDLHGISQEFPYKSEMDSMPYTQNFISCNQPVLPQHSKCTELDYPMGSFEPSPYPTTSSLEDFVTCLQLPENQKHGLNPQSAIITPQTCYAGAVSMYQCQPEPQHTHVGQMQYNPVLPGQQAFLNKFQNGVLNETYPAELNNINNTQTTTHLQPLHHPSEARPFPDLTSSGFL
Protocol: (§2) AhR-dependent gene transcription was determined in (A) human HG2L6.1c.1 and (B) mouse H1L6.1c.3 hepatoma cell lines that contain a stably transfected AhR-responsive luciferase reporter gene. […] Luciferase activity (Relative Light Units (RLUs)) was normalized to the maximal induction observed with TCDD in each cell line. Values represent the mean ± SD of nine independent analyses.
(§3) Recombinant mouse (H1L6.1c3) and human (HG2L6.1c1) hepatoma cells containing a stably integrated AhR-responsive luciferase reporter gene plasmid (pGudLuc6.1) were plated (750,000 cells/well) in 96-well plates and incubated at 37 °C for 24 h prior to chemical treatment. Cells were incubated with DMSO (1% (v/v)) or the indicated concentration of test chemical in DMSO for 4 h, followed by visual inspection of the cells for toxicity, washing of the cells with phosphate-buffered saline (PBS), addition of 50 µL of passive lysis buffer (Promega) and lysis of cells for 20 min at room temperature with shaking [50]. Luciferase activity in each well was measured (integrating luminescence over 10 s with a 10 s delay) in an Orion microplate luminometer (Berthold Detection Systems, Bad Wildbad, Germany) following automatic injection of Promega stabilized luciferase reagent.
(§4) Analysis of statistical significance of differences between experimental values was conducted using Two-Way ANOVA and EC50s and IC50s were calculated using nonlinear regression (three parameter) analysis in GraphPad Prism v.7 (La Jolla, CA, USA).

mouse AhR (mAhR) = target: T2, mouse AhR (mAhR) (Mus musculus, UniProt P30561); experiment: AhR-responsive luciferase reporter gene assay in stably transfected mouse H1L6.1c3 hepatoma cells; format: cell-based
T2 sequence (P30561 10-805): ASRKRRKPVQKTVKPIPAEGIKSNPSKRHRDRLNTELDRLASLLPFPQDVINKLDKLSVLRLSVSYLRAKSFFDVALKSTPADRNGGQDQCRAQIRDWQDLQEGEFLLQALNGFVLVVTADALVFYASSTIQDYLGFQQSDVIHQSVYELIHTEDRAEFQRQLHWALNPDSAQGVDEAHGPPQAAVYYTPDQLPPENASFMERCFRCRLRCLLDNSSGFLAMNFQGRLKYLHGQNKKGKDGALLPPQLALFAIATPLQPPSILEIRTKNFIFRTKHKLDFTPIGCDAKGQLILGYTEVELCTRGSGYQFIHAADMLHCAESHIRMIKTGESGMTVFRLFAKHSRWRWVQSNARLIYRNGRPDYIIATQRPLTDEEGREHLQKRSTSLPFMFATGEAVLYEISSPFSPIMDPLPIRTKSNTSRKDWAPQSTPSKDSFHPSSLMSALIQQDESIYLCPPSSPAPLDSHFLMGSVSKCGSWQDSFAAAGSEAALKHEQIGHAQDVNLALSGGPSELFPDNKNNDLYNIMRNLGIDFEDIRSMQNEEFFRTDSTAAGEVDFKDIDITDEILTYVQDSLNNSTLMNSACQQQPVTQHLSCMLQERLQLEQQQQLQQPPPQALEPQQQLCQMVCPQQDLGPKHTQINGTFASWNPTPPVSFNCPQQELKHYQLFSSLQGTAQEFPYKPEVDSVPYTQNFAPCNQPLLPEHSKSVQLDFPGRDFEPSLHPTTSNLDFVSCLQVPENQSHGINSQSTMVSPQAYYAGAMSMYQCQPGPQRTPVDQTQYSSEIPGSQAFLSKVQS
Protocol: as §2, §3, §4

mutant mAhR I324M = target: T3, mutant mAhR I324M (Mus musculus, UniProt P30561); experiment: AhR DNA binding (gel retardation) assay, I324M mAhR; format: biochemical
T3 construct: made in house; host or cells: in vitro transcription/translation, rabbit reticulocyte lysate
Protocol: (§5) An aliquot of each incubation was mixed with [^32P]-labeled double-stranded oligonucleotide containing the AhR-ARNT DRE3 DNA binding site (a dioxin responsive element from the upstream region of the murine Cyp1a1 gene [9] and protein-DNA complexes resolved by gel retardation analysis as previously described [48, 49]. Gels were visualized using a FLA9000 Fujifilm Imager and protein-DNA complexes quantitated with Fujifilm MultiGauge software (FujiFilm Corporation, Valhalla, NY, USA).
as §4

mutant mAhR A375V = target: T4, mutant mAhR A375V (Mus musculus, UniProt P30561, A375V/M324I); experiment: biochemical
T4 construct: made in house; host or cells: in vitro transcription/translation, rabbit reticulocyte lysate
T4 sequence (P30561 10-805 M324I/A375V limits assumed): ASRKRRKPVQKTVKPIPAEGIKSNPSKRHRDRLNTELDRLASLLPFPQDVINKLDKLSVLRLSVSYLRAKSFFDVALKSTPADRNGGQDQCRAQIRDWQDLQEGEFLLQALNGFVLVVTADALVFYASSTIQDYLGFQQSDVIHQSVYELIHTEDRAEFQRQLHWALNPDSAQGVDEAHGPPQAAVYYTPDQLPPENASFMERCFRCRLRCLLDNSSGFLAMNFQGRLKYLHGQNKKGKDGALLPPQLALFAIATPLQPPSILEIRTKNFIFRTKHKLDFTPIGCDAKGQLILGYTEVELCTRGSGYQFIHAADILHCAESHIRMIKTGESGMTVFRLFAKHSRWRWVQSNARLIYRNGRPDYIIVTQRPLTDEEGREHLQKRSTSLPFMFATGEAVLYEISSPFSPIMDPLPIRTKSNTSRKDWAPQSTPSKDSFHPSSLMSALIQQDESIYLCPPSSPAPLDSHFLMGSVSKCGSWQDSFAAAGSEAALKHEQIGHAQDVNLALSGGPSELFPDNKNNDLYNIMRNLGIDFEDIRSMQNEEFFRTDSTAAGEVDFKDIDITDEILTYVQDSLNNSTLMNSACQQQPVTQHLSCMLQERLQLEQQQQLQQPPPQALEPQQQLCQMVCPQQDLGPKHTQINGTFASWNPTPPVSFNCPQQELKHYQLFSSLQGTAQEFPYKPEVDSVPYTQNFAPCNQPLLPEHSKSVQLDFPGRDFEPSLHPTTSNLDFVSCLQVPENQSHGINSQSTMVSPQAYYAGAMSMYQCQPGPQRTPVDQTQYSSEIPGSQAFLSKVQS
T4 sequence (P53762 whole entry partner): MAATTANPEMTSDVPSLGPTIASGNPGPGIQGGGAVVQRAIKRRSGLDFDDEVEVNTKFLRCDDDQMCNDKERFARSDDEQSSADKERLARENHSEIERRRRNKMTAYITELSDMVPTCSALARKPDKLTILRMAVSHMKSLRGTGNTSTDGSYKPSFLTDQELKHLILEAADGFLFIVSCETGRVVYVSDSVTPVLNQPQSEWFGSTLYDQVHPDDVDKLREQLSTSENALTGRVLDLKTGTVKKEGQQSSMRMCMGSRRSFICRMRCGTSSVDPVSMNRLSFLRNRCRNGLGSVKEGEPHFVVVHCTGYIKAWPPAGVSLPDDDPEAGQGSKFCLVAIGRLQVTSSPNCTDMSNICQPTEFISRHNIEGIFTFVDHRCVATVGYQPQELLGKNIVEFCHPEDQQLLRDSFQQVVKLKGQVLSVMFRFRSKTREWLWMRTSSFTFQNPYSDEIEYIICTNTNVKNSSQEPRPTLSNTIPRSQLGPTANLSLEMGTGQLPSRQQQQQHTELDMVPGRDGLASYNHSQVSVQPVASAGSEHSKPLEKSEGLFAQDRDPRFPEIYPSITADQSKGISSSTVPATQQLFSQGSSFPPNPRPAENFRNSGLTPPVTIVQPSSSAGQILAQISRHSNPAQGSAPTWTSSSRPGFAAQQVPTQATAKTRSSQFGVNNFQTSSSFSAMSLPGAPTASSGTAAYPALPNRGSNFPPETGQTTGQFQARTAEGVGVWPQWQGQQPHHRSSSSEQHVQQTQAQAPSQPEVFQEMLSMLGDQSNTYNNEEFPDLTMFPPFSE
Protocol: as §5, §4

wild-type mAhR = system: T5, wild-type mAhR; experiment: Transient transfection luciferase reporter assay in COS-1 cells, wild-type mAhR; format: cell-based, mouse; details: COS-1 cells cotransfected with wild-type mAhR; TCDD 10 nM, IR 1 µM, 18–20 h
T5 construct: contains a full-length mAhR cDNA in which the mouse PASB LBD was replaced; expressed in transfected cells; host or cells: COS-1
Protocol: (§6) Cells were lysed, and lysates were analyzed for firefly luciferase activity. […] Luciferase activity (relative light units; RLU) was measured and corrected for background (DMSO) and normalized to mAhR TCDD levels. Values represent the mean ± SD of nine individual replicate analyses.
(§7) COS-1 cells were plated at a density of 75,000 cells/well and allowed to attach overnight in a 24-well plate. Cells were transiently transfected (per well) with the following amounts per well: 2 µL Lipofectamine 2000 (Invitrogen, Carlsbad, CA, USA), 20 ng wild-type (mβAhR/pcDNA3) or mutant AhR expression plasmids (in pcDNA3.1), 20 ng of mβARNT/pcDNA3 or pcDNA3.1(+) and 200 ng pGudLuc6.1 [17].

mutant mAhR T343I = target: T6, mutant mAhR T343I (Mus musculus, UniProt P30561, M324I/T343I); experiment: AhR DNA binding (gel retardation) assay, T343I mAhR; format: biochemical
T6 construct: made in house; host or cells: in vitro transcription/translation, rabbit reticulocyte lysate
Protocol: as §5, §4

mAhR [1] = target: T7, mAhR (Mus musculus, UniProt P30561, M324I); experiment: biochemical; design: made in house; host or cells: in vitro transcription/translation, rabbit reticulocyte lysate (Promega TNT)
Protocol: (§8) (A) The amount of inducible protein-DNA complex at each chemical concentration was quantitated and values normalized to the amount of complex formed with a maximal activating concentration of TCDD (20 nM). […] Values represent the mean ± SD of nine individual replicate analyses.
as §5, §4

mutant hAhR T355A = target: T8, mutant hAhR T355A (Homo sapiens, UniProt P35869, T355A); experiment: AhR DNA binding (gel retardation) assay, T355A hAhR; format: biochemical
T8 construct: made in house; host or cells: in vitro transcription/translation, rabbit reticulocyte lysate
Protocol: as §5, §4
(§9) In vitro synthesized mutant mAhRs were incubated in the presence of
(§10) 45 nM-10,000 nM) for 2 h and DNA binding analyzed by the gel retardation assay as described in
(§11) 46 Materials and Methods. Values represent the mean ± SD of nine individual replicate analyses and
(§12) 47 EC50 values determined by nonlinear regression (three-parameter) analysis and graphical depictions

mutant A349T mAhR = system: T9, mutant A349T mAhR; experiment: Transient transfection luciferase reporter assay in COS-1 cells, A349T mAhR; format: cell-based, mouse; details: COS-1 cells cotransfected with A349T mAhR; TCDD 10 nM, IR 1 µM, 18–20 h
T9 construct: contains a full-length mAhR cDNA in which the mouse PASB LBD was replaced; expressed in transfected cells; host or cells: COS-1
Protocol: as §6, §7

mutant mAhR L300I = target: T10, mutant mAhR L300I (Mus musculus, UniProt P30561, L300I/M324I); experiment: AhR DNA binding (gel retardation) assay, L300I mAhR; format: biochemical
T10 construct: made in house; host or cells: in vitro transcription/translation, rabbit reticulocyte lysate
T10 sequence (P30561 10-805 L300I/M324I limits assumed): as the sequence (P30561 10-805 M324I/A375V limits assumed) above, with L291I, V366A counted along it
T10 sequence (P53762 whole entry partner): as the sequence (P53762 whole entry partner) above
Protocol: as §5, §4

mutant mAhR S352N = target: T11, mutant mAhR S352N (Mus musculus, UniProt P30561, M324I/S352N); experiment: AhR DNA binding (gel retardation) assay, S352N mAhR; format: biochemical
T11 construct: made in house; host or cells: in vitro transcription/translation, rabbit reticulocyte lysate
Protocol: as §5, §4, §9, §10, §11, §12

mutant mAhR H326Y = target: T12, mutant mAhR H326Y (Mus musculus, UniProt P30561, H326Y/M324I); experiment: AhR DNA binding (gel retardation) assay, H326Y mAhR; format: biochemical
T12 construct: made in house; host or cells: in vitro transcription/translation, rabbit reticulocyte lysate
Protocol: as §5, §4

mAhR A375V [2] = details: A375V versus high-affinity mAhR ref 27, 28; cited from earlier work
mutant hAhR Y332H = target: T13, mutant hAhR Y332H (Homo sapiens, UniProt P35869, Y332H); experiment: AhR DNA binding (gel retardation) assay, Y332H hAhR; format: biochemical
T13 construct: made in house; host or cells: in vitro transcription/translation, rabbit reticulocyte lysate
T13 sequence (P35869 11-848 Y332H): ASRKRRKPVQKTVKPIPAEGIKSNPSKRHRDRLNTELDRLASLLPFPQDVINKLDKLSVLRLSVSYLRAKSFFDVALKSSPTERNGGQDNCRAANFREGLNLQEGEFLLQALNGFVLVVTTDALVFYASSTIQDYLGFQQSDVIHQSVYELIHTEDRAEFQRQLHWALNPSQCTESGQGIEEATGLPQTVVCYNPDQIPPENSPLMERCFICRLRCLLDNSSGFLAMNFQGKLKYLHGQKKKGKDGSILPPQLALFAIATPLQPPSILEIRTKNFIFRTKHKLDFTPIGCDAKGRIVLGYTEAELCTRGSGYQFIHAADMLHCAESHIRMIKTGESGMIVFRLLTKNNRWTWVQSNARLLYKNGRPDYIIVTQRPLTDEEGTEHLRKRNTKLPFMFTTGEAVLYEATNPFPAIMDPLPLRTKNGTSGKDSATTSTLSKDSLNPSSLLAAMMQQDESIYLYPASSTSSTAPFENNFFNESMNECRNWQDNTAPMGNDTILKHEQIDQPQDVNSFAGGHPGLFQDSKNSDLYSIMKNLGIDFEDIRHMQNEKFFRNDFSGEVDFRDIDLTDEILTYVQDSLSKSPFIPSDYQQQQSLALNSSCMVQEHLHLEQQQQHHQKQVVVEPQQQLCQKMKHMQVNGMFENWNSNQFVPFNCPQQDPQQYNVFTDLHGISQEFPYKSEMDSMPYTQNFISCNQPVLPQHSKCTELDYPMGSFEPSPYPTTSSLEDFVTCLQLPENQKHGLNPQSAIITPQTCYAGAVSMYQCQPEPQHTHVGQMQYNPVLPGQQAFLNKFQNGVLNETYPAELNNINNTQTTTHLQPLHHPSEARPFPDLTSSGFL
T13 sequence (P27540 whole entry partner): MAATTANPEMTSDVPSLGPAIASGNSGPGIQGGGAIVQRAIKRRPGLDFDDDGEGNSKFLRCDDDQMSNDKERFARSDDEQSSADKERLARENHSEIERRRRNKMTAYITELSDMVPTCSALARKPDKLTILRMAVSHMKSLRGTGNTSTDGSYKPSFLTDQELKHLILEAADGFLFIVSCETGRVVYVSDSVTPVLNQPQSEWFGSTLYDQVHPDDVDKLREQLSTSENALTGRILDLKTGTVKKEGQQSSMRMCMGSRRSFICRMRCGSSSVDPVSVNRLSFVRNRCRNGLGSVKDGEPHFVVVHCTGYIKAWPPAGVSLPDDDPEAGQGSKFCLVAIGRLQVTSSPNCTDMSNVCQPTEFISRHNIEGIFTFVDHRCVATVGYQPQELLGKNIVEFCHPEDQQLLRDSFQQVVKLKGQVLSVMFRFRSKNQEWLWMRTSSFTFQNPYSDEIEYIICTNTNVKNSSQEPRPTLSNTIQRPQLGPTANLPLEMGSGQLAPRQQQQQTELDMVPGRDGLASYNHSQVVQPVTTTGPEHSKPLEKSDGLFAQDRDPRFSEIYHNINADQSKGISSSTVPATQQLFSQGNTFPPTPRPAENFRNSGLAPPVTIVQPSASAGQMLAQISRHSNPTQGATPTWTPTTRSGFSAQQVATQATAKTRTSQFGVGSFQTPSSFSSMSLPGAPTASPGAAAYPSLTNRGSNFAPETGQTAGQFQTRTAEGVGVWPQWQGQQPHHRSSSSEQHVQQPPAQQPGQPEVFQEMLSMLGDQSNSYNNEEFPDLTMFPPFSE
Protocol: as §5, §4, §9, §10, §11, §12

mutant mAhR V307A = target: T14, mutant mAhR V307A (Mus musculus, UniProt P30561, M324I/V307A); experiment: AhR DNA binding (gel retardation) assay, V307A mAhR; format: biochemical
T14 construct: made in house; host or cells: in vitro transcription/translation, rabbit reticulocyte lysate
T14 sequence (P30561 10-805 V307A/M324I limits assumed): as the sequence (P30561 10-805 M324I/A375V limits assumed) above, with V298A, V366A counted along it
T14 sequence (P53762 whole entry partner): as the sequence (P53762 whole entry partner) above
Protocol: as §5, §4

mutant mAhR I301V = target: T15, mutant mAhR I301V (Mus musculus, UniProt P30561, I301V/M324I); experiment: AhR DNA binding (gel retardation) assay, I301V mAhR; format: biochemical
T15 construct: made in house; host or cells: in vitro transcription/translation, rabbit reticulocyte lysate
Protocol: as §5, §4

mutant hAhR V381A = target: T16, mutant hAhR V381A (Homo sapiens, UniProt P35869, V381A); experiment: AhR DNA binding (gel retardation) assay, V381A hAhR; format: biochemical
T16 construct: made in house; host or cells: in vitro transcription/translation, rabbit reticulocyte lysate
Protocol: as §5, §4, §9, §10, §11, §12

mutant mAhR A349T [3] = target: T17, mutant mAhR A349T (Mus musculus, UniProt P30561, A349T/M324I); experiment: biochemical; design: made in house; host or cells: in vitro transcription/translation, rabbit reticulocyte lysate
Protocol: as §5, §4

mutant mAhR Q299R = target: T18, mutant mAhR Q299R (Mus musculus, UniProt P30561, M324I/Q299R); experiment: AhR DNA binding (gel retardation) assay, Q299R mAhR; format: biochemical
T18 construct: made in house; host or cells: in vitro transcription/translation, rabbit reticulocyte lysate
Protocol: as §5, §4

hAhR = hAhR (Homo sapiens, UniProt P35869); experiment: biochemical; design: only occur within the full length hAhR and not in the mAhR-hAhRLBD chimera; made in house; host or cells: in vitro transcription/translation, rabbit reticulocyte lysate
Protocol: as §8, §5, §4

mAhR A375V [4] = details: A375V versus high-affinity mAhR ref 27, 28; cited from earlier work; remark: listed apart in the source
mutant mAhR R355T = target: T19, mutant mAhR R355T (Mus musculus, UniProt P30561, M324I/R355T); experiment: AhR DNA binding (gel retardation) assay, R355T mAhR; format: biochemical
T19 construct: made in house; host or cells: in vitro transcription/translation, rabbit reticulocyte lysate
Protocol: as §5, §4, §9, §10, §11, §12

mutant mAhR H351N = target: T20, mutant mAhR H351N (Mus musculus, UniProt P30561, H351N/M324I); experiment: AhR DNA binding (gel retardation) assay, H351N mAhR; format: biochemical
T20 construct: made in house; host or cells: in vitro transcription/translation, rabbit reticulocyte lysate
Protocol: as §5, §4, §9, §10, §11, §12

mutant mAhR A349T [5] = target: T17, mutant mAhR A349T; design: host or cells: rabbit reticulocyte lysate, coupled transcription/translation; details: specific binding
Protocol: (§1) [^3H]TCDD specific binding was determined by subtracting the amount of [^3H]TCDD bound to unprogrammed lysate (nonspecific binding) from the total amount of [^3H]TCDD binding to lysate containing in vitro expressed AhR.
Target sequence in this assay (P30561 10-805 M324I/A349T limits assumed): as the sequence (P30561 10-805 M324I/A375V limits assumed) above, with A340T, V366A counted along it

mAhR [6] = target: T7, mAhR; design: host or cells: rabbit reticulocyte lysate, coupled transcription/translation; details: in vitro synthesized AhRs, specific binding
Protocol: as §1
Target sequence in this assay (P30561 10-805 M324I limits assumed): as the sequence (P30561 10-805 M324I/A375V limits assumed) above, with V366A counted along it

[7] = mouse H1L6.1c3 hepatoma cells, 4 h, mean ± SD of nine analyses, read-out: EC50 to stimulate luciferase reporter gene expression, Mouse

EC50 (human AhR (hAhR)): 184 ± 42.1 nM | EC50 at 4 h (mouse AhR (mAhR); [7]): 22.3 ± 3.53 nM
Structure (SMILES): COC(=O)c1csc(C(=O)c2c[nH]c3ccccc23)n1 [ITE, 2-(1H-Indol-3-ylcarbonyl)-4-thiazolecarboxylic acid methyl ester]

Structure (SMILES): Clc1cc2c(cc1Cl)Oc1cc(Cl)c(Cl)cc1O2 [TCDD, 2,3,7,8-tetrachlorodibenzo-p-dioxin]
EC50 (mutant mAhR I324M): 2.92 ± 0.14 nM | EC50 (human AhR (hAhR)): 0.26 ± 0.07 nM | EC50 (mutant mAhR A375V): 5.25 ± 0.56 nM | induction of luciferase activity, TCDD versus IR (wild-type mAhR): comparable to IR | EC50 (mutant mAhR T343I): 1.79 ± 0.12 nM | EC50 (mAhR [1]): 2.48 ± 0.54 nM | EC50 at 4 h (mouse AhR (mAhR); mouse): 0.027 ± 0.01 nM | EC50 (mutant hAhR T355A): 2.32 ± 0.82 nM | maximal induction compared with wild-type mAhR (mutant A349T mAhR): significantly repressed compared to wild-type mAhR | EC50 (mutant mAhR L300I): 1.42 ± 0.61 nM | EC50 (mutant mAhR S352N): 4.34 ± 0.26 nM | EC50 (mutant mAhR H326Y): 0.62 ± 0.52 nM | lower affinity of the mAhR after mutation A375V (mAhR A375V [2]): ~ 10 fold | EC50 (mutant hAhR Y332H): 0.59 ± 0.6 nM | EC50 (mutant mAhR V307A): 4.25 ± 0.12 nM | EC50 (mutant mAhR I301V): 2.09 ± 0.01 nM | EC50 (mutant hAhR V381A): 2.99 ± 0.65 nM | EC50 (mutant mAhR A349T [3]): 3.86 ± 1.06 nM | EC50 (mutant mAhR Q299R): 2.29 ± 0.12 nM | EC50 (hAhR): 2.46 ± 0.9 nM | lower activation potency of the mAhR after mutation A375V (mAhR A375V [4]): ~ 10 fold | EC50 (mutant mAhR R355T): 0.94 ± 0.06 nM | EC50 (mutant mAhR H351N): 0.73 ± 0.04 nM

Structure (SMILES): Clc1cc2oc3cc(Cl)c(Cl)cc3c2cc1Cl [TCDF, 2,3,7,8-tetrachlorodibenzofuran]
EC50 (human AhR (hAhR)): 4.1 ± 0.79 nM | EC50 (mouse AhR (mAhR); [7]): 1.25 ± 0.65 nM

Structure (SMILES): Clc1cc2c(cc1Cl)Oc1cc(Cl)c(Cl)cc1O2 [[^3H]TCDD]
[3H]TCDD binding to A349T mutant mAhR compared with wild-type mAhR (mutant mAhR A349T [5]): not significantly different from that of the wild-type mAhR | more [3H]TCDD bound to wild-type mAhR than to the mAhR-hAhRLBD chimera (mAhR [6]): ~ 10%
